Columns and labels:
Assay type in all cases: cell-based
[1] = molecular target: T1, FXR (Homo sapiens, UniProt Q96RI1); test: activity on nuclear receptor FXR
T1 sequence (Q96RI1 1-486): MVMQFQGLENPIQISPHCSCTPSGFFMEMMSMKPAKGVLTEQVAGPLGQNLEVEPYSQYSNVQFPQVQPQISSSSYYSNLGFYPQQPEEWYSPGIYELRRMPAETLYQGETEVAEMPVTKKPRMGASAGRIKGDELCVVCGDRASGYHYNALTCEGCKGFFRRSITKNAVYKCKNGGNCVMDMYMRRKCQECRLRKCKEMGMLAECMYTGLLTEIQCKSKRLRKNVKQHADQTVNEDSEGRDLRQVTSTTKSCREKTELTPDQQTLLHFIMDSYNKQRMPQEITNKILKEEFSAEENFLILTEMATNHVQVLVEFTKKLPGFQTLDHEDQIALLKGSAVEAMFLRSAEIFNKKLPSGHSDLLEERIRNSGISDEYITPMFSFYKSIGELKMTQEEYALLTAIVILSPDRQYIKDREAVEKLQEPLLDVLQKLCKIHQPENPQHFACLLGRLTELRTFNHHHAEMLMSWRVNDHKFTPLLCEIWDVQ

[2] = molecular target: T2, LXRβ (Homo sapiens, UniProt P55055); test: activity on nuclear receptor LXRβ
T2 sequence (P55055 1-460): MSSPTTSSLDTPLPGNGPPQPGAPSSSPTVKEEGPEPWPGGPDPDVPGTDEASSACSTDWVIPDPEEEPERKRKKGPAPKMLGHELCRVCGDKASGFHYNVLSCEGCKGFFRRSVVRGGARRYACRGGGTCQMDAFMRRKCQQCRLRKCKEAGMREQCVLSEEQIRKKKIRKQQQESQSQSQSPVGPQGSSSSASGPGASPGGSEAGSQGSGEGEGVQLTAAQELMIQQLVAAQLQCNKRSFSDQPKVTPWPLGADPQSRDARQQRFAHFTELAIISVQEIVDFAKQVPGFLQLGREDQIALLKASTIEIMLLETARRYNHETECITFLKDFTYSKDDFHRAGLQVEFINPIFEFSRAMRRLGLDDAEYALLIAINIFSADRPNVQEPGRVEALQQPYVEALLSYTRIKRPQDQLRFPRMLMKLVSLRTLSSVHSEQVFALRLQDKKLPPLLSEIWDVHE

[3] = test system: human muscle cell lines; test: fatty acid oxidation in human muscle cell lines
[4] = molecular target: T3, hPPARα (Homo sapiens, UniProt Q07869); test: PPAR transient transactivation assay, hPPARα
T3 construct: expressed in transfected cells; host or cells: HEK293
T3 sequence (Q07869 239-466 limits assumed): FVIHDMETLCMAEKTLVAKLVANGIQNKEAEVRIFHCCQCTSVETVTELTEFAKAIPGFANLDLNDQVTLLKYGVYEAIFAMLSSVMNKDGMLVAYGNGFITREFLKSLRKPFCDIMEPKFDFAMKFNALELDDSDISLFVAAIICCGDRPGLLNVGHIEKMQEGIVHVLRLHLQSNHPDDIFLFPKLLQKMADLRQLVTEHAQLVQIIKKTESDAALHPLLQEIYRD
Protocol: “Activation” herein is defined as the abovementioned downstream response, which in the case of PPAR's is gene transcription. Gene transcription, in some cases, is measured indirectly as downstream production of proteins reflective of the activation of the particular PPAR subtype under study. Alternatively, an artificial reporter construct, in some cases, is employed to study the activation of the individual PPAR's expressed in cells. The ligand binding domain of the particular receptor to be studied, in some embodiments, is fused to the DNA binding domain of a transcription factor, which produces convenient laboratory readouts, such as the yeast GAL4 transcription factor DNA binding domain. The fusion protein, in some cases, is transfected into a laboratory cell line along with a Gal4 enhancer, which effects the expression of the luciferase protein. When such a system is transfected into a laboratory cell line, binding of a receptor agonist to the fusion protein will result in light emission.
The PPAR transient transactivation assay, in some cases, is based on transient transfection into human HEK293 cells of two plasmids encoding a chimeric test protein and a reporter protein respectively. […] The amount of luciferase protein is measured by light emission after addition of the appropriate substrate. […]

Cc1cc(OC/C=C(/c2ccc(F)cc2)c2ccc(C#CCN3CCOCC3)cc2)ccc1OCC(=O)O [Compound 1, (E)-[4-[3-(4-Fluorophenyl)-3-[4-[3-(morpholin-4-yl)propynyl]phenyl]allyloxy]-2-methyl-phenoxy]acetic acid]
activity on FXR [1]: did not show any | activity on LXRβ [2]: did not show any | fatty acid oxidation [3]: dose-dependent increase | activity on PPARα in transactivation assays [4]: negligible activity | type of agonism on PPARα [4]: partial agonist
